We go through nine compounds from article PMC2649009 (Journal of medicinal chemistry, 2008).

“And” between values parts separate entries of the source, which are not always exact repeats. Equal values may be shown once.

The target of one assay is T1, human GVIA iPLA2 (Homo sapiens, UniProt O60733).
T1 sequence (O60733 1-806): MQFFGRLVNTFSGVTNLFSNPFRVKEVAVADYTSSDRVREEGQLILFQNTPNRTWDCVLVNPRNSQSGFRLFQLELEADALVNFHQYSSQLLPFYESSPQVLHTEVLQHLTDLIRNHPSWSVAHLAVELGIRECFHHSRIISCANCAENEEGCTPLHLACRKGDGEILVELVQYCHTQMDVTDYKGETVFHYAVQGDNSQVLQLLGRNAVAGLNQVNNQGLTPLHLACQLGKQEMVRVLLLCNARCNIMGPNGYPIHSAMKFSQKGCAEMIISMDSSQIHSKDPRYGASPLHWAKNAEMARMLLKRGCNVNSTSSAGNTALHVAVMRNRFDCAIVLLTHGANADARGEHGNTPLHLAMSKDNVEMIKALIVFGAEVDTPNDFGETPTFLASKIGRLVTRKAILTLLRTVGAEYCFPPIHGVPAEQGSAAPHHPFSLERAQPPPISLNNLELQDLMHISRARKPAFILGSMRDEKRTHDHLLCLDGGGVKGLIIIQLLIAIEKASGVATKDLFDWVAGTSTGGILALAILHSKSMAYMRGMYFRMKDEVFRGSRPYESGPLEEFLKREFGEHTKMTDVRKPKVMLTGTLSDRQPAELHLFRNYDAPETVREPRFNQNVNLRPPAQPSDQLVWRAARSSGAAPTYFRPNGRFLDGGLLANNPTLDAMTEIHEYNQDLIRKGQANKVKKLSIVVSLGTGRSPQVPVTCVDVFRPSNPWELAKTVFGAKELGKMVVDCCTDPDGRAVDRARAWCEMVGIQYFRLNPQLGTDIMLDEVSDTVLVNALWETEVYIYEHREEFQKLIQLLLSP
As to the kind of experiment: mixed micelle-based modified Dole assay, GVIA iPLA2 inhibition. The conditions noted are these: mole fraction of inhibitor in total substrate interface giving 50% inhibition. Type of assay: biochemical.
As for `O=C(CCCCc1ccccc1)C(F)(F)C(F)(F)F` [10a, 1,1,1,2,2-Pentafluoro-7-phenyl-heptan-3-one], the “GVIA iPLA2 XI(50)” value was 0.0073 mole fraction and 0.0073 ± 0.0007 mole fraction. In the case of `O=C(CCCCCc1ccccc1)C(F)(F)C(F)(F)F` [10b, 1,1,1,2,2-Pentafluoro-8-phenyl-octan-3-one], the “GVIA iPLA2 XI(50)” value is 0.0065 mole fraction.

Consider `O=C(CCCCCCc1ccccc1)C(F)(F)C(F)(F)F` [10c, 1,1,1,2,2-Pentafluoro-9-phenyl-nonan-3-one], for which the “GVIA iPLA2 XI(50)” value turned out to be 0.0065 mole fraction.

Take `O=C(CCCCCc1ccccc1)C(F)(F)F` [12a, 1,1,1-Trifluoro-7-phenylheptan-2-one]: the “GVIA iPLA2 XI(50)” value worked out at 0.0025 mole fraction. Still for that read-out and setting: next, `O=C(CCCCCCc1ccccc1)C(F)(F)F` [12b, 1,1,1-Trifluoro-8-phenyloctan-2-one]: 0.0018 mole fraction; `CCCCCCOc1ccc(CCC(=O)C(F)(F)F)cc1` [19a, 1,1,1-Trifluoro-4-(4-hexyloxy-phenyl)-butan-2-one]: 0.0328 ±0.0035 mole fraction.

In the case of `CCCCCCCCCCCCCCCC(=O)C(F)(F)F` [compound 6, palmitoyl trifluoromethyl ketone, reference compound], the “GVIA iPLA2 XI(50)” value turned out to be 0.0195 mole fraction. The same measure, in the same setting: next, `CCCCCCOc1ccc(CCC(=O)C(F)(F)C(F)(F)F)cc1` [compound 21, 1,1,1,2,2-Pentafluoro-5-(4-hexyloxy-phenyl)-pentan-3-one]: 0.0075 mole fraction; `CCCCCCCCCCCCCCC(F)C(=O)C(F)(F)F` (stereo not shown) [compound 26, 1,1,1,3-Tetrafluoro-heptadecan-2-one]: 0.0011 mole fraction.

The assay is the same for the next values; noted with them: ratio of XI(50) values, 26 vs 6.
Consider `CCCCCCCCCCCCCCC(F)C(=O)C(F)(F)F` (stereo not shown) [compound 26, 1,1,1,3-Tetrafluoro-heptadecan-2-one], for which the “potency as inhibitor of GVIA iPLA2 relative to trifluoro derivative 6” value is reported as “approximately twenty-fold”.
